From patent US10301267B2, “Compounds” (AstraZeneca AB, priority 2006, dated 2019) come the findings set out here.

pIC50: −log10 of the molar value. Structures can show the parent of a compound that is named as a salt.

FGFR1 active kinase, sequence (P11362 22-822): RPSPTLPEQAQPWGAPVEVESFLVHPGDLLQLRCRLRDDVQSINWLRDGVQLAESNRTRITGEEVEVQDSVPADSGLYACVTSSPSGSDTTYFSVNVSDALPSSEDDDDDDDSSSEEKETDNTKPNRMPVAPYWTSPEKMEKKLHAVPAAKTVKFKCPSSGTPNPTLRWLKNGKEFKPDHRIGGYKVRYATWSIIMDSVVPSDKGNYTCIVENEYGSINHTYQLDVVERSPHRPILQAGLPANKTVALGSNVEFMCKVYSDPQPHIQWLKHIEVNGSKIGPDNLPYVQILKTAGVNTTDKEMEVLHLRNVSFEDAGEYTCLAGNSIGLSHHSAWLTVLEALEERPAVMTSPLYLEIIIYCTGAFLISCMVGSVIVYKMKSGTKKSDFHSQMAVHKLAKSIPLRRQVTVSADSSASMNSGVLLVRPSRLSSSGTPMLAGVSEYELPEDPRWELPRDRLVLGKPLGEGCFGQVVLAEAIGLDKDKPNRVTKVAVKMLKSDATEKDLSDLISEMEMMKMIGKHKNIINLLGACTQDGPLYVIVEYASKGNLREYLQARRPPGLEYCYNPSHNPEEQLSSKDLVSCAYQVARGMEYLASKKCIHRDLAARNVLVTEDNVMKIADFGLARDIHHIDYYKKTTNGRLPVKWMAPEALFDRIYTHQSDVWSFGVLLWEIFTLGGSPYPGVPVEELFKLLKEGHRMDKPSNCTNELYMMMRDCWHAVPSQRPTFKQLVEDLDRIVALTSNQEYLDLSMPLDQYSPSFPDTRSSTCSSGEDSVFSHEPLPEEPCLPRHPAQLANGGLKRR

The assay concerns the target FGFR1 active kinase (Homo sapiens, UniProt P11362). The assay can be described thus: FGFR Kinase assay - Caliper. Note: 408 µM ATP. The assay is classed as biochemical. The following applies: FGFR1 […], 408 uM ATP; mean of n as printed; read-out: FGFR Kinase assay - Caliper, IC50. How it is done: FGFR Kinase Assay—Caliper
To determine inhibition of FGFR activity, kinase assays were conducted using Caliper technology.
Kinase activity assays were performed in Greiner 384-well low volume plates, with a total reaction volume of 12 ul per well. Final concentration of FGFR1 active kinase in each reaction well was 7.2 nM. The substrate for each assay was a custom peptide with fluorescent tag (13 amino acids in length, […] with the fluorescene tag on the first K).
Compounds were serially diluted in 5% (v/v) DMSO, before being added to assay plates. The Enzyme (at 7.2 nM [final]) and Substrate (at 3.6 uM [final]) were added separately to the compound plates, in reaction buffer [comprising: 50 mM MOPS (Sigma, Catalogue No. M1254)—pH 6.5, 0.004% Triton (Sigma, Catalogue No. X-100), 2.4 mM DTT, 12 mM MgCl2, 408 uM ATP] resulting in a final DMSO concentration in the reaction mix of 0.8%.
Assay plates were incubated at room temperature for 1.5 h, before the reaction was stopped with the addition of buffer [comprising: 100 mM HEPES—pH7.5, 0.033% Brij-35 (Sigma Catalogue No. B4184), 0.22% Caliper Coating Reagent #3 (Caliper Life Sciences Catalogue No. 760050), 88 mM EDTA, 5% DMSO]. Stopped assay plates were then read using the Caliper LabChip® LC3000 (which uses microfludics to measure a shift in mobility between fluorescent labelled peptide and the FGFR1 kinase—phosphorylated form of this peptide).
In the assay, compounds were tested at a range of concentrations.
Percentage inhibition at 1 uM, as expressed herein, is a calculated value based on the curve fit that was generated experimentally. From the fitted curve plot, the effect of compound at a concentration of 1 uM was calculated as a percentage inhibition. The IC50 is the concentration of compound, which inhibits FGFR1 kinase activity by 50% in the context of this assay.
The pIC50 is the negative decadic logarithm of the IC50, by convention in mol/L. For `COc1cc(CCc2cc(NC(=O)c3cccc(OC)c3)n[nH]2)cc(OC)c1` [Example 39, N-[5-[2-(3,5-Dimethoxyphenyl)ethyl]-1H-pyrazol-3-yl]-3-methoxy-benzamide], the pIC50 was 6.43.

In the case of `COc1cccc(CCc2cc(NC(=O)c3ccc(-n4cccn4)cc3)[nH]n2)c1` [Example 25, N-[5-[2-(3-Methoxyphenyl)ethyl]-2H-pyrazol-3-yl]-4-pyrazol-1-yl-benzamide], the pIC50 is 6.03.

`COc1cc(COc2cc(NC(=O)c3ccc(NCCN(C)C)cc3)[nH]n2)cc(OC)c1` [Example 70, N-[5-[(3,5-Dimethoxyphenyl)methoxy]-2H-pyrazol-3-yl]-4-(2-dimethylaminoethylamino)benzamide Hydrochloride]: the negative-log IC50 (pIC50) is 7.51.

Regarding `COc1cc(COc2cc(NC(=O)c3ccc(N4CCCNCC4)cc3)n[nH]2)cc(OC)c1` [Example 75, 4-(1,4-Diazepan-1-yl)-N-[5-[(3,5-dimethoxyphenyl)methoxy]-1H-pyrazol-3-yl]benzamide Hydrochloride], the pIC50 was 8.07.

Turning to `COc1cc(CCc2cc(NC(=O)c3ccc(N4CCN(C)CC4)nn3)[nH]n2)cc(OC)c1` [Example 84, N-[5-[2-(3,5-Dimethoxyphenyl)ethyl]-2H-pyrazol-3-yl]-6-(4-methylpiperazin-1-yl)pyridazine-3-carboxamide], the pIC50 is 6.41.

For `COc1cccc(CCc2cc(NC(=O)c3ccc(NC=O)cn3)[nH]n2)c1` [Example 29, 5-Formamido-N-[5-[2-(3-methoxyphenyl)ethyl]-2H-pyrazol-3-yl]pyridine-2-carboxamide], the pIC50 is 6.06.

Regarding `COc1cc(CCc2cc(NC(=O)c3ccc(CN(C)C)cc3)n[nH]2)cc(OC)c1` [Example 47, N-[5-[2-(3,5-Dimethoxyphenyl)ethyl]-1H-pyrazol-3-yl]-4-(dimethylaminomethyl)benzamide], the pIC50 was 7.72.

For the compound `COc1cc(COc2cc(NC(=O)c3cccc(N4CCNCC4)c3)n[nH]2)cc(OC)c1` [Example 74, N-[5-[(3,5-Dimethoxyphenyl)methoxy]-1H-pyrazol-3-yl]-3-piperazin-1-yl-benzamide], the negative logarithm of the IC50 (pIC50) was 6.89.

As for `COc1cc(COc2cc(NC(=O)c3cnc(N4CCN(C)CC4)nc3)n[nH]2)cc(OC)c1` [Example 73, N-[5-[(3,5-Dimethoxyphenyl)methoxy]-1H-pyrazol-3-yl]-2-(4-methylpiperazin-1-yl)pyrimidine-5-carboxamide], the pIC50 is 7.36.

Consider `COc1cc(CCc2cc(NC(=O)c3ccc(C4CCNCC4)cc3)n[nH]2)cc(OC)c1` [Example 58, N-[5-[2-(3,5-Dimethoxyphenyl)ethyl]-1H-pyrazol-3-yl]-4-(4-piperidyl)benzamide], for which the pIC50 was 9.00.

As to `COc1cc(CCc2cc(NC(=O)c3ccc(N4CCNCC4)cc3)n[nH]2)cc(OC)c1` [Example 45, N-[5-[2-(3,5-Dimethoxyphenyl)ethyl]-1H-pyrazol-3-yl]-4-piperazin-1-yl-benzamide], the negative logarithm of the IC50 (pIC50) was 7.59.

For the compound `COc1cc(CCc2cc(NC(=O)c3ccc(N4CCN(C(C)=O)CC4)cc3)n[nH]2)cc(OC)c1` [Example 90, 4-(4-Acetylpiperazin-1-yl)-N-[5-[2-(3,5-dimethoxyphenyl)ethyl]-1H-pyrazol-3-yl]benzamide], the pIC50 was 7.25.

For `COc1cc(CCc2cc(NC(=O)c3cccc(N4CCOCC4)c3)n[nH]2)cc(OC)c1` [Example 40, N-[5-[2-(3,5-Dimethoxyphenyl)ethyl]-1H-pyrazol-3-yl]-3-morpholin-4-yl-benzamide], the pIC50 was 6.15.

On to `COc1cc(CCc2cc(NC(=O)c3ccc(N4CCN(C5CCC5)CC4)cc3)n[nH]2)cc(OC)c1` [Example 89, 4-(4-Cyclobutylpiperazin-1-yl)-N-[5-[2-(3,5-dimethoxyphenyl)ethyl]-1H-pyrazol-3-yl]benzamide], for which the pIC50 was 8.05.

Consider `COc1cccc(CCc2cc(NC(=O)c3ccc(-n4cncn4)cc3)[nH]n2)c1` [Example 36, N-[5-[2-(3-Methoxyphenyl)ethyl]-2H-pyrazol-3-yl]-4-(1,2,4-triazol-1-yl)benzamide], for which the pIC50 is 6.18.

Take `CCOCCOc1ccc(C(=O)Nc2cc(CCc3cc(OC)cc(OC)c3)[nH]n2)cc1` [Example 42, N-[5-[2-(3,5-Dimethoxyphenyl)ethyl]-1H-pyrazol-3-yl]-4-(2-ethoxyethoxy)benzamide]: the pIC50 is 7.12.

With `COc1cc(CCc2cc(NC(=O)c3ccc(N(C)C)cc3)n[nH]2)cc(OC)c1` [Example 59, N-[5-[2-(3,5-Dimethoxyphenyl)ethyl]-1H-pyrazol-3-yl]-4-dimethylamino-benzamide], the pIC50 was 6.87.

As to `COc1cc(CCc2cc(NC(=O)c3ccc(OCCN4CCOCC4)cc3)n[nH]2)cc(OC)c1` [Example 54, N-[5-[2-(3,5-Dimethoxyphenyl)ethyl]-1H-pyrazol-3-yl]-4-(2-morpholin-4-ylethoxy)benzamide], the pIC50 was 7.02.

In the case of `COc1cc(COc2cc(NC(=O)c3ccc(N4CCN(C)CC4)cn3)[nH]n2)cc(OC)c1` [Example 69, N-[5-[(3,5-Dimethoxyphenyl)methoxy]-2H-pyrazol-3-yl]-5-(4-methylpiperazin-1-yl)pyridine-2-carboxamide], the pIC50 is 6.91.

Take `COc1cccc(CCc2cc(NC(=O)c3ccc(O)nc3)[nH]n2)c1` [Example 31, 6-Hydroxy-N-[5-[2-(3-methoxyphenyl)ethyl]-2H-pyrazol-3-yl]pyridine-3-carboxamide]: the pIC50 is 5.98.

For `COc1cccc(CCc2cc(NC(=O)c3ccc(-c4cnco4)cc3)[nH]n2)c1` [Example 33, N-[5-[2-(3-Methoxyphenyl)ethyl]-2H-pyrazol-3-yl]-4-(1,3-oxazol-5-yl)benzamide], the pIC50 was 5.92.

In the case of `COc1ccc(OC)c(CCc2cc(NC(=O)c3ccc(N4CCN(C)CC4)cc3)[nH]n2)c1` [Example 78, N-[5-[2-(2,5-Dimethoxyphenyl)ethyl]-2H-pyrazol-3-yl]-4-(4-methylpiperazin-1-yl)benzamide], the pIC50 was 6.33.

For `COc1cccc(CCc2cc(NC(=O)c3ccc(N4CCN(S(C)(=O)=O)CC4)cc3)n[nH]2)c1` [Example 91, N-[5-[2-(3-Methoxyphenyl)ethyl]-1H-pyrazol-3-yl]-4-(4-methylsulfonylpiperazin-1-yl)benzamide], the pIC50 is 6.60.

On to `COc1cccc(CCc2cc(NC(=O)c3ccc(NC(=O)c4ccccc4)cc3)[nH]n2)c1` [Example 21, 4-Benzamido-N-[5-[2-(3-methoxyphenyl)ethyl]-2H-pyrazol-3-yl]benzamide], for which the pIC50 was 3.64.

Turning to `COc1cccc(CCc2cc(NC(=O)c3ccc(Nc4ccccc4)nc3)[nH]n2)c1` [Example 26, 6-Anilino-N-[5-[2-(3-methoxyphenyl)ethyl]-2H-pyrazol-3-yl]pyridine-3-carboxamide], the pIC50 is 4.19.

In the case of `COc1cc(CCc2cc(NC(=O)c3ccc(N4CCCCC4)cc3)n[nH]2)cc(OC)c1` [Example 43, N-[5-[2-(3,5-Dimethoxyphenyl)ethyl]-1H-pyrazol-3-yl]-4-(1-piperidyl)benzamide], the pIC50 was 6.36.

For the compound `COc1cccc(CCc2cc(NC(=O)c3ccc(Cl)nc3)[nH]n2)c1` [Example 62, 6-Chloro-N-[5-[2-(3-methoxyphenyl)ethyl]-2H-pyrazol-3-yl]pyridine-3-carboxamide], the pIC50 was 5.34.

Take `COc1cccc(CCc2cc(NC(=O)c3cc(O)ccn3)[nH]n2)c1` [Example 64, 4-Hydroxy-N-[5-[2-(3-methoxyphenyl)ethyl]-2H-pyrazol-3-yl]pyridine-2-carboxamide]: the pIC50 is 5.30.

Turning to `COc1cccc(CCc2cc(NC(=O)c3ccc(N4CCOCC4)nc3)[nH]n2)c1` [Example 32, N-[5-[2-(3-Methoxyphenyl)ethyl]-2H-pyrazol-3-yl]-6-morpholin-4-yl-pyridine-3-carboxamide], the pIC50 was 7.57.

`COC(=O)c1ccc(C(=O)Nc2cc(CCc3cccc(OC)c3)n[nH]2)nc1` [Example 61, Methyl 6-[[5-[2-(3-methoxyphenyl)ethyl]-2H-pyrazol-3-yl]carbamoyl]pyridine-3-carboxylate]: the pIC50 is 4.17.

Turning to `COc1cc(CCc2cc(NC(=O)c3ccc(N4CCNCC4)nc3)n[nH]2)cc(OC)c1` [Example 46, N-[5-[2-(3,5-Dimethoxyphenyl)ethyl]-1H-pyrazol-3-yl]-6-piperazin-1-yl-pyridine-3-carboxamide], the pIC50 is 7.40.

As for `COc1ccc(CCc2cc(NC(=O)c3ccc(N4CCN(C)CC4)cc3)[nH]n2)c(C)c1` [Example 79, N-[5-[2-(4-Methoxy-2-methyl-phenyl)ethyl]-2H-pyrazol-3-yl]-4-(4-methylpiperazin-1-yl)benzamide], the pIC50 was 6.70.

For `C=CCOC(=O)Nc1ccc(C(=O)Nc2cc(CCc3cccc(OC)c3)n[nH]2)cn1` [Example 35, Prop-2-enyl N-[5-[[5-[2-(3-methoxyphenyl)ethyl]-2H-pyrazol-3-yl]carbamoyl]pyridin-2-yl]carbamate], the pIC50 was 4.12.
